Earlier results as cited in patent US6083980A, “Furanyl, tetracyclic triterpene derivatives with immunosuppressant activity” (Merck & Co., Inc., priority 1998, dated 2000).
pIC50: −log10 of the molar value.

Tested on: Kv 1.3 channels (CHO cells transfected with Kv 1.3 channels)
Details: stated for the reference blocker used to establish the efflux window

Substance: margatoxin (TIINVKCTSPKQCLPPCKAQFGQSAGAKCMNGKCKCYPH; UniProt P40755 1-39, looked up)
- pIC50: 10.00
